Experimental data as given in US11260034B2, “Method of using niclosamide derivatives” (CHANG GUNG UNIVERSITY, priority 2016, dated 2022).

Tests used:
[1] = system: washed platelet samples, platelet aggregation induced by collagen; assay: platelet aggregation test, washed platelets stimulated with collagen (light transmission); type: cell-based; details: for collagen-induced platelet aggregation: FIG. 8; for aggregation percentage: FIG. 9
Procedure: FIG. 1 is a diagram illustrating a platelet aggregation test, in accordance with at least one embodiment of the present invention. In FIG. 1, N and C represent the administrations of niclosamide in 0.25% dimethyl sulfoxide (DMSO) or collagen respectively. The platelet aggregation test was performed in accordance with the standard procedure. Four washed platelet samples from the same source were treated with the same volume of niclosamide (0.5 μM, 1 μM, and 2 μM) or a solvent control respectively. Five minutes later, each washed platelet sample was treated with collagen (2 μM) to induce platelet aggregation. FIG. 1 illustrates the light transmission rates of each result. In FIG. 1, the X-axis represents time and the Y-axis represents the transmittance. Note that in FIG. 1, the four platelet aggregation tests performed simultaneously are presented sequentially on the X-axis to render the data readable for one skilled in the art. […] The platelet aggregation test was performed in accordance with the standard procedure. Four washed platelet samples from the same source were treated with the same volume of niclosamide (0.5 μM, 1 μM, and 2 μM) or a solvent control respectively. Five minutes, each washed platelet sample was treated with 2 μM collagen to induce platelet aggregation. The results were detected twenty minutes after the administration of collagen. In FIG. 2, the Y-axis represents the percentage of platelet aggregation, in which the transmittance of platelet-poor plasma is set as 100%. FIG. 8 is a diagram illustrating a platelet aggregation test, in accordance with at least one embodiment of the present invention. Four washed platelet samples from the same source were treated with different treatments at the same time. In FIG. 8, “D” represents the administration of 0.25% DMSO; “C” represents the administration of collagen; “N” represents the administration of niclosamide in 0.25% DMSO; and “S” represents the administration of a STAT-3 inhibitor, STA-21. […] Four washed platelet samples from the same source were treated with different treatments at the same time. In FIG. 9, “D” represents 0.25% DMSO; “STA-21” represents the STAT-3 inhibitor, STA-21; “Niclosamide” represents the niclosamide in 0.25% DMSO; and “Collagen” represents the stimulant, collagen.

mice [2] = assay: ferric chloride occlusive thrombosis of mesenteric arteries; type: in vivo; details: FIG. 11; mice 8-10 weeks; 20 mg/kg injected into the abdomen; 7.5% FeCl3 on mesenteric arteries for 2 min; DMSO control 5 minutes
Procedure: FIG. 11 is diagram illustrating the occlusion time, in accordance with at least one embodiment of the present invention. Mice at 8-10 weeks of age were used in FIG. 11. About 20 nM 3,3′-Dihexyloxacarbocyanine iodide (DioC6), a fluorescent dye used for the staining of platelets, was injected into the orbital vein after 20 mg/kg niclosamide or 5% DMSO was injected into the abdomen. An hour later, isoflurane was provided based on the body weight to anesthetize the mice. Followed the standard procedure for studying occlusive thrombosis, Whatman #1 filter papers soaked with 7.5% ferric chloride (FeCl3) were attached to the mesenteric arteries for two minutes. The mesenteric arteries were then immersed in isotonic saline and placed under a fluorescence microscope (Macrofluo, objective 5.0/0.5 NA, Leica Micro-systems) to record the occlusion time and cessation of blood flow.

[3] = system: washed platelet sample, clot formation induced by collagen; assay: optical microscope images of platelet aggregation test; type: cell-based; details: FIG. 4C; 2 μM niclosamide and 2.5 μM collagen
Procedure: FIGS. 4A-4C are optical microscope images of a platelet aggregation test, in accordance with at least one embodiment of the present invention. The platelet aggregation test was performed in accordance with the standard procedure on three washed platelet samples from the same source at the same time. […] In FIG. 4C, the washed platelet sample 10 received 2 μM niclosamide and 2.5 μM collagen; In FIG. 4B, the washed platelet sample 10 received 2.5 μM collagen and 0.25% DMSO with the same volume of the niclosamide in FIG. 4C. Note that 0.25% DMSO is the solvent of the niclosamide in FIG. 4C. […] In FIG. 4B, clots 20 formed as a result of the treatment of collagen and DMSO.

[4] = system: washed platelet samples, platelet aggregation induced by podoplanin; assay: platelet aggregation test, washed platelets stimulated with podoplanin; type: cell-based; details: FIG. 6; niclosamide 0.5 μM, 1 μM or 2 μM vs solvent control; 0.4 μM podoplanin; read 20 min after podoplanin
Procedure: FIG. 6 is a bar chart representing the quantitative results of a platelet aggregation test, in accordance with at least one embodiment of the present invention. All procedures in FIG. 6 are the same as the procedures in FIG. 2, except that the collagen used to stimulate platelet aggregation in FIG. 2 is substituted by podoplanin in FIG. 6. In this embodiment, four washed platelet samples from the same source were treated with the same volume of niclosamide (0.5 μM, 1 μM, and 2 μM) or a solvent control respectively. Five minutes, each washed platelet sample was treated with 0.4 μM podoplanin to induce platelet aggregation. The results were detected twenty minutes after the administration of podoplanin. In FIG. 6, the Y-axis represents the percentage of platelet aggregation, in which the transmittance of platelet-poor plasma is used as 100%.

mice [5] = assay: tail bleeding assay; type: in vivo; details: FIG. 10; mice 8-10 weeks; 20 mg/kg injected into the abdomen, 1 h before; distal 3-mm tail segment amputated; DMSO control 5 minutes
Procedure: FIG. 10 is diagram illustrating the bleeding time results, in accordance with at least one embodiment of the present invention. Mice at 8-10 weeks of age were used in FIG. 10. Isoflurane was provided based on the body weight to anesthetize the mice one hour after the 20 mg/kg niclosamide or 5% DMSO was injected into the abdomen. Followed the standard procedure of tail bleeding assay, the distal 3-mm segment of the tail was amputated with scalpel after the anesthetization. The tails were than immersed in isotonic saline at 37° C. to observe the bleeding time. […] However, the bleeding time for mice treated with niclosamide was extended to around 15 minutes.

[6] = Int J Risk Saf Med 20 (2008) 113-122; cited from earlier work
pSYK and PLCγ2 = assay: western blot of proteins in the signal transduction pathway of platelet aggregation; type: cell-based; details: FIG. 3; 2 μM niclosamide pretreatment, 2.5 μM collagen
Procedure: FIG. 3 is a western blot image showing proteins in the signal transduction pathway of platelet aggregation, in accordance with at least one embodiment of the present invention. In FIG. 3, pSYK and PLCγ2 in the signal transduction pathway are suppressed in the washed platelet sample received 2 μM niclosamide, even that is treated with 2.5 μM collagen to induce platelet aggregation. In contrast, the pSYK and PLCγ2 in the washed platelet sample received a solvent control (0.25% DMSO) pretreatment are successfully activated after the 2.5 μM collagen treatment.

Which collagen-induced platelet aggregation ([1]; pretreated with 1.25 μM STA-21, 2 μM collagen) does the source give for `C[C@@H]1CC(=O)c2c(ccc3c2C(=O)c2cccc(O)c2C3=O)C1` [STA-21, ochromycinone] here?
The collagen-induced platelet aggregation was “suppressed”.

And the aggregation percentage ([1]; 1.25 μM STA-21 and 2 μM collagen (DMSO control exceeds 60%))?
Its aggregation percentage is “less than 40%”.

Which occlusion time (mice [2]) does the source give for `O=C(Nc1ccc([N+](=O)[O-])cc1Cl)c1cc(Cl)ccc1O` [niclosamide, 5-chloro-N-(2-chloro-4-nitrophenyl)-2-hydroxybenzamide] here?
Its occlusion time is “around 25 minutes”.

And the “platelet aggregation / clots under 20× optical microscope” value [3]?
The value was “No platelet aggregation is observed”.

And the “percentage of platelet aggregation” value [4]?
Its value is “significantly reduced”.

What about the bleeding time (mice [5]) of the same compound?
Its bleeding time is “around 15 minutes”.

What about the “safety profile under current conditions of use” value [6] of the same compound?
Its value is “there is no information to suggest an unfavorable safety profile of the drug under current conditions of use”.

What about the “pSYK and PLCγ2 in the signal transduction pathway” value (pSYK and PLCγ2) of the same compound?
The value was “suppressed”.

And the “platelet aggregation induced by collagen (transmittance over time)” value ([1]; FIG. 1, niclosamide 0.5 μM, 1 μM, 2 μM given 5 min before collagen 2 μM)?
Its value is “suppresses the platelet aggregation induced by collagen in a dose-dependent manner”.

And the “percentage of platelet aggregation” value ([1]; FIG. 2, niclosamide 0.5 μM, 1 μM or 2 μM vs solvent control, 2 μM collagen, read 20 min after collagen, p<0.01)?
Its value is “significantly reduced”.

What about the collagen-induced platelet aggregation ([1]; pretreated with 0.25 μM niclosamide, 2 μM collagen) of the same compound?
The collagen-induced platelet aggregation was “suppressed”.

What about the aggregation percentage ([1]; 0.25 μM niclosamide and 2 μM collagen (DMSO control exceeds 60%)) of the same compound?
The aggregation percentage was “less than 30%”.

What about the “IC50 relative to STA-21” value ([1]; FIGS. 8 and 9, collagen-induced platelet aggregation) of the same compound?
Its value is “lower IC50 compared to STA-21”.
